# Source: patent USRE36481E, “HMG-CoA reductase inhibitors” (Merck & Co., Inc., priority 1998, dated 2000)
# Test system: not listed separately
# Assay: Standing of the free dihydroxy acid (reversion to lactone)
# Type: physicochemical
# Settings: free dihydroxy acid after isolation; can be maintained by increasing the pH above 7.0
# Procedure: The sodium salt of the compound II from Example 64 is dissolved in 2 ml of ethanol-water (1:1; v:v) and added to 10 ml of 1N hydrochloric acid from which the dihydroxy acid is extracted with ethyl acetate. The organic extract is washed once with water, dried (Na2 SO4), and evaporated in vacuo with a bath temperature not exceeding 30° C. […] The dihydroxy acid can be maintained by increasing the pH above 7.0.
row,Compound,stability of the dihydroxy acid on standing
1,CCC(C)(C)C(=O)O[C@H]1C[C@@H](CO)C[C@@H]2CC[C@H](C)[C@H](CC[C@@H](O)C[C@@H](O)CC(=O)O)[C@H]21 [Example 70],"slowly reverts to the corresponding,parent lactone on standing"

# Test system: HMG-CoA reductase
# Assay: HMG-CoA Reductase Inhibition Assay (in vitro, relative to compactin)
# Type: biochemical
# Settings: IC50 compared with compactin determined simultaneously, compactin assigned 100; tested as sodium salt of dihydroxy acid form; solubilized rat liver microsomal enzyme
# Procedure: The intrinsic HMG-CoA reductase inhibition activity of the claimed compounds is measured in the in vitro protocol published in J. Med. Chem., 28, p. […] (1985) and described below: Male Holtzman Sprague-Dawley rats (225-250 g) were kept on reversed lighting and fed Purina rat chow containing 3% cholestyramine for 7 days preceding their sacrifice by CO2 asphyxiation. Livers were removed 6 hours into the dark cycle and used immediately to prepare microsomes. HMG-CoA reductase was solubilized from the freshly prepared microsomes by the method of Heller and Shrewsbury [J. Biol. Chem., 1976, 251, 3815]and purified through the second ammonium sulfate precipitation step as described by Kleinsek et al. [Proc. Natl. Acad. Sci. USA, 1977, 74, 1431]. […] The enzyme preparation was stored at -80° C. The assay is essentially the procedure of Shefer et al. [J. Lipid Res., 1972, 13, 402]. The complete assay medium contained the following in a total volume of 0.8 ml: phosphate buffer, pH 7.2, 100 mM; MgCl2, 3 mM; NADP, 3 mM; glucose-6-phosphate, 10 mM; glucose-6-phosphate dehydro-genase, 3 enzyme units; reduced glutathione 50 mM; HMG-CoA (glutaryl-3-^14 C, New England Nuclear), 0.2 mM (0.1 μCi); and partially purified enzyme stock solution, 100 μL. […] After a 40-minute incubation at 37° C. with shaking and exposure to air, the reaction was stopped by the addition of 0.4 mL of 8 N HCl. After an additional 30-minute incubation period at 37° C. to ensure the complete lactonization of mevalonic acid to mevalonolactone, 0.2 ml of the mixture was added to an 0.5×5.0 cm column containing 100-200 mesh Bio-Rex 5, chloride form (Bio-Rad), wetted with distilled water, as described by Alberts et al. [Proc. Natl. Acad. Sci. U.S.A., 1980, 77, 3967]. The unreacted [^14 C]HMG-CoA was absorbed on the resin and the [^14 C]mevalonolactone was eluted with distilled water (2×1 ml) directly into 7-ml scintillation vials. Five milliliters of Aquasol-2 (New England Nuclear) was added to each vial, and radioactivity was measured in a Packard Tri Carb Prias scintillation counter. IC50 values were determined by plotting percentage inhibition against test compound concentration and fitting a straight line to the resulting data by using the least-squares method.
row,Compound,Relative Potency
1,CCC(C)(C)C(=O)OC[C@H]1C[C@@H]2CC[C@H](C)[C@H](CC[C@@H](O)C[C@@H](O)CC(=O)O)[C@H]2[C@@H](OC(=O)C(C)(C)CC)C1,100
2,CCC(C)(C)C(=O)O[C@H]1C[C@H](COC(=O)Nc2ccccc2)C=C2C=C[C@H](C)[C@H](CC[C@@H](O)C[C@@H](O)CC(=O)O)[C@H]21,726
3,CCC(C)(C)C(=O)O[C@H]1C[C@@H](C(=O)N(C(=O)NC2CCCCC2)C2CCCCC2)C[C@@H]2CC[C@H](C)[C@H](CC[C@@H](O)C[C@@H](O)CC(=O)O)[C@H]21,100
4,CCC(C)(C)C(=O)OC[C@H]1C=C2CC[C@H](C)[C@H](CC[C@@H](O)C[C@@H](O)CC(=O)O)[C@H]2[C@@H](OC(=O)C(C)(C)CC)C1,33
5,"CCC(C)(C)C(=O)O[C@H]1C[C@H](C(C)O)C[C@@H]2CC[C@H](C)[C@H](CC[C@@H](O)C[C@@H](O)CC(=O)O)[C@H]21 (single isomer, unassigned) [-- -- -- R CHOHCH3 (ISOMER A) 1,1-dimethylpropyl]",111
6,"CCC(C)(C)C(=O)O[C@H]1C[C@H](C(C)O)C[C@@H]2CC[C@H](C)[C@H](CC[C@@H](O)C[C@@H](O)CC(=O)O)[C@H]21 (single isomer, unassigned) [-- -- -- R CHOHCH3 (ISOMER B) 1,1-dimethylpropyl]",104
7,"CCC(C)(C)C(=O)O[C@H]1C[C@@H](C(C)O)C[C@@H]2CC[C@H](C)[C@H](CC[C@@H](O)C[C@@H](O)CC(=O)O)[C@H]21 (single isomer, unassigned) [-- -- -- S CHOHCH3 (ISOMER A) 1,1-dimethylpropyl]",131
8,"CCC(C)(C)C(=O)O[C@H]1C[C@@H](C(C)O)C[C@@H]2CC[C@H](C)[C@H](CC[C@@H](O)C[C@@H](O)CC(=O)O)[C@H]21 (single isomer, unassigned) [-- -- -- S CHOHCH3 (ISOMER B) 1,1-dimethylpropyl]",113
9,"CCC(C)(C)C(=O)O[C@H]1C[C@@H](C(O)c2ccccc2)C[C@@H]2CC[C@H](C)[C@H](CC[C@@H](O)C[C@@H](O)CC(=O)O)[C@H]21 (single isomer, unassigned) [-- -- -- S CHOHPH 1,1-dimethylpropyl]",220
10,"CCC(C)(C)C(=O)O[C@H]1C[C@@H](CO)C[C@@H]2CC[C@H](C)[C@H](CC[C@@H](O)C[C@@H](O)CC(=O)O)[C@H]21 [-- -- -- S CH2 OH 1,1-dimethylpropyl]",86
11,C[C@H]1CC[C@H]2C[C@H](CO)C[C@H](OC(=O)C3CCCCC3)[C@@H]2[C@H]1CC[C@@H](O)C[C@@H](O)CC(=O)O [-- -- -- S CH2 OH cyclohexyl],33
12,"CCOC(=O)[C@H]1C[C@@H]2CC[C@H](C)[C@H](CC[C@@H](O)C[C@@H](O)CC(=O)O)[C@H]2[C@@H](OC(=O)C(C)(C)CC)C1 [-- -- -- S CO2 Et 1,1-dimethylpropyl]",125
13,"CCC(C)(C)C(=O)O[C@H]1C[C@@H](C(=O)O)C[C@@H]2CC[C@H](C)[C@H](CC[C@@H](O)C[C@@H](O)CC(=O)O)[C@H]21 [-- -- -- S CO2 H 1,1-dimethylpropyl]",79
14,"CCC(C)(C)C(=O)O[C@H]1C[C@@H](C(=O)OC(C)C)C[C@@H]2CC[C@H](C)[C@H](CC[C@@H](O)C[C@@H](O)CC(=O)O)[C@H]21 [-- -- -- S CO2 i-Pr 1,1-dimethylpropyl]",80
15,"CCC(C)(C)C(=O)O[C@H]1C[C@@H](C(N)=O)C[C@@H]2CC[C@H](C)[C@H](CC[C@@H](O)C[C@@H](O)CC(=O)O)[C@H]21 [-- -- -- S CONH2 1,1-dimethylpropyl]",107
16,"CCC(C)(C)C(=O)O[C@H]1C[C@@H](C(=O)N(C)C)C[C@@H]2CC[C@H](C)[C@H](CC[C@@H](O)C[C@@H](O)CC(=O)O)[C@H]21 [-- -- -- S CONMe2 1,1-dimethylpropyl]",75
17,"CCC(C)(C)C(=O)O[C@H]1C[C@@H](CO)C=C2CC[C@H](C)[C@H](CC[C@@H](O)C[C@@H](O)CC(=O)O)[C@H]21 [db -- -- R CH2 OH 1,1-dimethylpropyl]",213
18,CCC(C)C(=O)O[C@H]1C[C@@H](CO)C=C2C=C[C@H](C)[C@H](CC[C@@H](O)C[C@@H](O)CC(=O)O)[C@H]21 (stereo partly shown) [db -- db R CH2 OH sec-butyl],47
19,"CCC(C)(C)C(=O)O[C@H]1C[C@@H](C(=O)O)C=C2C=C[C@H](C)[C@H](CC[C@@H](O)C[C@@H](O)CC(=O)O)[C@H]21 [db -- db R CO2 H 1,1-dimethylpropyl]",94
20,"CCC(C)(C)C(=O)O[C@H]1C[C@H](CO)C=C2C=C[C@H](C)[C@H](CC[C@@H](O)C[C@@H](O)CC(=O)O)[C@H]21 [db -- db S CH2 OH 1,1-dimethylpropyl]",189
21,"CCC(C)(C)C(=O)O[C@H]1C[C@H](C(=O)O)C=C2C=C[C@H](C)[C@H](CC[C@@H](O)C[C@@H](O)CC(=O)O)[C@H]21 [db -- db S CO2 H 1,1-dimethylpropyl]",99
22,CCC(C)C(=O)O[C@H]1C[C@H](C(=O)O)C=C2C=C[C@H](C)[C@H](CC[C@@H](O)C[C@@H](O)CC(=O)O)[C@H]21 (stereo partly shown) [db -- db S CO2 H sec-butyl],26
23,"CCN(CC)C(=O)[C@@H]1C=C2C=C[C@H](C)[C@H](CC[C@@H](O)C[C@@H](O)CC(=O)O)[C@H]2[C@@H](OC(=O)C(C)(C)CC)C1 [db -- db S CONEt2 1,1-dimethylpropyl]",65
24,"CCC(C)(C)C(=O)O[C@H]1C[C@H](C(=O)N(C)C)C=C2C=C[C@H](C)[C@H](CC[C@@H](O)C[C@@H](O)CC(=O)O)[C@H]21 [db -- db S CONMe2 1,1-dimethylpropyl]",82
